Source: BindingDB's records for doi:10.1016/j.bmcl.2006.03.080 (University of Siena, 2006)

Legend:
[1] = Antiviral activity against HIV1 K103N mutant in MT4 cells by MTT assay
[2] = Antiviral activity against HIV1 Y181C mutant in MT4 cells by MTT assay
[3] = Antiviral activity against HIV1 IRLL98 in MT4 cells by MTT assay
[4] = Antiviral activity against wild type HIV1 NL4-3 in MT4 cells by MTT assay
[5] = Antiviral activity against HIV1 Y188L mutant in MT4 cells by MTT assay

| Structure (SMILES) | EC50 [1] [µM] | EC50 [2] [µM] | EC50 [3] [µM] | EC50 [4] [µM] | EC50 [5] [µM] |
| --- | --- | --- | --- | --- | --- |
| Cc1c(Cc2c(Cl)cccc2Cl)nc(Sc2ccc(C#N)cc2)[nH]c1=O | > 27.6 | 5.1 | > 27.6 | 2.49 | > 27.6 |
| Cc1c(Cc2c(F)cccc2F)nc(Sc2ccccc2)[nH]c1=O | 42.5 | – | 16.7 | 0.09 | > 72.7 |
| Cc1c(Cc2c(F)cccc2F)nc(Sc2ccc(F)cc2F)[nH]c1=O | > 65.8 | – | 25.8 | 0.31 | > 65.8 |
| COc1ccc(Sc2nc(Cc3c(Cl)cccc3Cl)c(C)c(=O)[nH]2)cc1 | > 61.4 | > 61.4 | > 61.4 | 26.5 | > 61.4 |
| Cc1c(Cc2c(Cl)cccc2Cl)nc(Sc2ccccc2)[nH]c1=O | > 66.3 | 12.1 | 4.91 | 1.8 | > 66.3 |
| COc1ccc(Sc2nc(Cc3c(F)cccc3F)c(C)c(=O)[nH]2)cc1 | > 57.5 | – | > 57.5 | 0.67 | > 57.5 |
| Cc1c(Cc2c(Cl)cccc2Cl)nc(Sc2ccc(F)cc2F)[nH]c1=O | > 60.5 | – | 44.7 | 3.36 | > 60.5 |
| Cc1cn([C@H]2C[C@H](N=[N+]=[N-])[C@@H](CO)O2)c(=O)[nH]c1=O [1-((2R,4S,5S)-4-Azido-5-hydroxymethyl-tetrahydro-furan-2-yl)-5-methyl-1H-pyrimidine-2,4-dione] | 0.003 | – | 0.008 | – | 0.003 |
| COc1ccc(Sc2nc(Cc3c(Cl)cccc3Cl)c(C)c(=O)[nH]2)cn1 | > 61.7 | 6.52 | 8.68 | 2.72 | > 61.3 |
| Cc1c(Cc2c(F)cccc2F)nc(Sc2ccc(Cl)cc2)[nH]c1=O | 8.01 | – | > 66.1 | 0.1 | > 66.1 |
